Legend:
A431 = A431 cell proliferation assay (CellTiter Glo, 72 hours); format: cell-based; conditions: Homo sapiens, A-431, 72 h, cell proliferation, A431, 72 hours, Table 2; read-out: A431 IC50
Outline: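 Luminescence (CellTiter-Glo) after 72 h treatment gives viability, fitted by nonlinear regression to yield IC50. Cells seeded at 2000 per well; nine 3-fold concentrations from 1000 nM, DMSO final 0.1% (0.5% for certain compounds).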

[1] = biological target: Ba/F3-EGFR wild-type cell line (Homo sapiens, UniProt P00533); test: Ba/F3-EGFR wild-type cell proliferation assay (CellTiter Glo, 72 hours); format: cell-based; conditions: Table 2, read-out: EGFR WT IC50
Chain of Ba/F3-EGFR wild-type cell line (P00533 whole entry, stated change not applied): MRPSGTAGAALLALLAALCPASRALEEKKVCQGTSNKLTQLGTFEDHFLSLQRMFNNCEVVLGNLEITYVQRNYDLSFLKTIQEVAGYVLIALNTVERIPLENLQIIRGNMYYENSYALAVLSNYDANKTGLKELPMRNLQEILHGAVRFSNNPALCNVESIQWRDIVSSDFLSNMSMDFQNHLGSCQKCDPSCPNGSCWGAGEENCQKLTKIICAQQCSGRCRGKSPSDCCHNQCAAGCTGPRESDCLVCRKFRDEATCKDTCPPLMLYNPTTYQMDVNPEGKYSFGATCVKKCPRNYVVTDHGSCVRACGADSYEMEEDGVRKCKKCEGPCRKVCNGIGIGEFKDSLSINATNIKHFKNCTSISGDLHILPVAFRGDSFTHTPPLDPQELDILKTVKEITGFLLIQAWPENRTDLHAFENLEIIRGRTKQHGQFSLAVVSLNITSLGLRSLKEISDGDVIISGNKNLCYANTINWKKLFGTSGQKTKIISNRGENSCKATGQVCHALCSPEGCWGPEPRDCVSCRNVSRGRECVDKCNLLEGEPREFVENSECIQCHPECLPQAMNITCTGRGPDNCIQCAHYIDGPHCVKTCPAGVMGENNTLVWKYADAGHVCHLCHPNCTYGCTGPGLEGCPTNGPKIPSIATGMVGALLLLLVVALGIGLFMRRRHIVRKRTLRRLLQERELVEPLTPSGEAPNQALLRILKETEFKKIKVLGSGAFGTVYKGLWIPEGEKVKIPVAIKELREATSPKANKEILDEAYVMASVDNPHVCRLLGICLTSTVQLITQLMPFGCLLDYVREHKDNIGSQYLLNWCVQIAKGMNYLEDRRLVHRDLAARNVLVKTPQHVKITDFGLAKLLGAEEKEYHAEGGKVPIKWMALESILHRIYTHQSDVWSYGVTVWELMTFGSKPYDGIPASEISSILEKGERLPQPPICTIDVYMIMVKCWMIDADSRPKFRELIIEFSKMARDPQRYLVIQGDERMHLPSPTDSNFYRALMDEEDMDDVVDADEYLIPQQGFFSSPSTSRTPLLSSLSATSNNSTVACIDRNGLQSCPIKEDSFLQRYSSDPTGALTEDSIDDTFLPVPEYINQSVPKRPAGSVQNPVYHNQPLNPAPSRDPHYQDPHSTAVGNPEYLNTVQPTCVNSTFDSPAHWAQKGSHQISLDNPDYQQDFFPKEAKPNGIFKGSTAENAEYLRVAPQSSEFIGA
Protocol: Cell line: Ba/F3 cells with EGFR Δ19del/T790M/C797S mutation gene stably overexpressed named Ba/F3-Δ119del/T90M/C797S, and A431 and Ba/F3-EGFR wild-type cell line.
a) Centrifuge the growth cells in logarithmic phase at 1000 rpm for 5 minutes, resuspend the cells in culture medium, and then count the cells;
b) Inoculate the cells into a 96-well cell culture plate with a density of 2000 cells/well;
b) Incubate cells in an incubator for another 72 hours.
a) Take out the 96-well cell culture plate and add 50 μl CTG reagent (CellTiter Glo kit, promega, Cat #G7573);
b) Shake the plate for 2 minutes and let cool at room temperature for 10 minutes;
c) Read luminous signal value with PerkinElmer reader,
Analysis of Experimental Data
The data were analyzed by GraphPad Prism 6.0 software to obtain the fitting curve of compound activity.
Y=Min+(Max−Min)/(1+10^((Log IC50−X)*slope));
X: Logarithm of compound concentration; Y: luminous signal.

EGFRΔ19del/T790M/C797S = EGFRΔ19del/T790M/C797S (Homo sapiens, UniProt P00533, T790M/C797S, form not given); test: EGFR Δ19del/T790M/C797S kinase test (mobility variation analysis, Caliper EZ Reader); format: biochemical; conditions: kinase enzymatic activity, Table 1
Chain of EGFRΔ19del/T790M/C797S (P00533 with tags, fused parts or gaps DEL746-750/T790M/C797S, form open): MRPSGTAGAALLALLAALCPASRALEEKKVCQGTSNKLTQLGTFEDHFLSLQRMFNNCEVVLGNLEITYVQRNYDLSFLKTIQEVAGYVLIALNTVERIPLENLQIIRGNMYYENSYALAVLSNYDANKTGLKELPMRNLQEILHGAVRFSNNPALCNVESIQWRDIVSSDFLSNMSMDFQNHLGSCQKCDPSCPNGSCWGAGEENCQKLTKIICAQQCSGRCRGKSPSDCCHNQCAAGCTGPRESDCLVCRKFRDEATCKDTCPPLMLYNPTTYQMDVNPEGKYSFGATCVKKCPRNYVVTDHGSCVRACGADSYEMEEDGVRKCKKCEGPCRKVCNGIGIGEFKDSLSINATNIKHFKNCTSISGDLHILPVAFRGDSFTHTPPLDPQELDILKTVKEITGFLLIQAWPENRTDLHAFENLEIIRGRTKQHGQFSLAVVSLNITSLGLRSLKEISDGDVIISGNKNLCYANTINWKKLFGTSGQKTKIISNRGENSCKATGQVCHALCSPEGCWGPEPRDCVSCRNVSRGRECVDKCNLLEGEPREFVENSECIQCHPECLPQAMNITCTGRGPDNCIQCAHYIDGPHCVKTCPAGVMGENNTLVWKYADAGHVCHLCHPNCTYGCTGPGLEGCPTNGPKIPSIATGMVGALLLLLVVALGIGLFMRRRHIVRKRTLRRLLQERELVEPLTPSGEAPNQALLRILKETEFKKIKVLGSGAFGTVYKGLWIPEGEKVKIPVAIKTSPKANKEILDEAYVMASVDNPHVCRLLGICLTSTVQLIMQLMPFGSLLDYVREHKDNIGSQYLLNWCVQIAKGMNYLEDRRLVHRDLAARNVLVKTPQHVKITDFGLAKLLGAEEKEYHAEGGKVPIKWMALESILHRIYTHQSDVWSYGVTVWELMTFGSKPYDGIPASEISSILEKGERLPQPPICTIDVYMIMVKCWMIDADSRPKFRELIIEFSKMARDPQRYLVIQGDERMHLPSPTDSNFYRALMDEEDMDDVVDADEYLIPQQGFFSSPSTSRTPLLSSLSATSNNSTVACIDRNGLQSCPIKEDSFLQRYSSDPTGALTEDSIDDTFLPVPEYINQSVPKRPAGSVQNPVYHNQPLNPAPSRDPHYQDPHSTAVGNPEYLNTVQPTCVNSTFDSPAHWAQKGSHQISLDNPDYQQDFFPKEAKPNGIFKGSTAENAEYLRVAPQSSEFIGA
Outline: (§1)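 Read-out is substrate-to-product conversion by mobility shift, stopped after incubation at room temperature with ATP and substrate, following a 10-minute room-temperature compound–enzyme pre-incubation. IC50 obtained by four-parameter variable-slope fitting of inhibition normalized between enzyme-free and uninhibited controls.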

IGF1R = IGF1R (Homo sapiens, UniProt P08069); test: IGF1R kinase test (mobility variation analysis, Caliper EZ Reader); format: biochemical; conditions: kinase enzymatic activity, Table 1; read-out: EGFR IGF1R IC50
Chain of IGF1R (P08069 31-1367, species assumed): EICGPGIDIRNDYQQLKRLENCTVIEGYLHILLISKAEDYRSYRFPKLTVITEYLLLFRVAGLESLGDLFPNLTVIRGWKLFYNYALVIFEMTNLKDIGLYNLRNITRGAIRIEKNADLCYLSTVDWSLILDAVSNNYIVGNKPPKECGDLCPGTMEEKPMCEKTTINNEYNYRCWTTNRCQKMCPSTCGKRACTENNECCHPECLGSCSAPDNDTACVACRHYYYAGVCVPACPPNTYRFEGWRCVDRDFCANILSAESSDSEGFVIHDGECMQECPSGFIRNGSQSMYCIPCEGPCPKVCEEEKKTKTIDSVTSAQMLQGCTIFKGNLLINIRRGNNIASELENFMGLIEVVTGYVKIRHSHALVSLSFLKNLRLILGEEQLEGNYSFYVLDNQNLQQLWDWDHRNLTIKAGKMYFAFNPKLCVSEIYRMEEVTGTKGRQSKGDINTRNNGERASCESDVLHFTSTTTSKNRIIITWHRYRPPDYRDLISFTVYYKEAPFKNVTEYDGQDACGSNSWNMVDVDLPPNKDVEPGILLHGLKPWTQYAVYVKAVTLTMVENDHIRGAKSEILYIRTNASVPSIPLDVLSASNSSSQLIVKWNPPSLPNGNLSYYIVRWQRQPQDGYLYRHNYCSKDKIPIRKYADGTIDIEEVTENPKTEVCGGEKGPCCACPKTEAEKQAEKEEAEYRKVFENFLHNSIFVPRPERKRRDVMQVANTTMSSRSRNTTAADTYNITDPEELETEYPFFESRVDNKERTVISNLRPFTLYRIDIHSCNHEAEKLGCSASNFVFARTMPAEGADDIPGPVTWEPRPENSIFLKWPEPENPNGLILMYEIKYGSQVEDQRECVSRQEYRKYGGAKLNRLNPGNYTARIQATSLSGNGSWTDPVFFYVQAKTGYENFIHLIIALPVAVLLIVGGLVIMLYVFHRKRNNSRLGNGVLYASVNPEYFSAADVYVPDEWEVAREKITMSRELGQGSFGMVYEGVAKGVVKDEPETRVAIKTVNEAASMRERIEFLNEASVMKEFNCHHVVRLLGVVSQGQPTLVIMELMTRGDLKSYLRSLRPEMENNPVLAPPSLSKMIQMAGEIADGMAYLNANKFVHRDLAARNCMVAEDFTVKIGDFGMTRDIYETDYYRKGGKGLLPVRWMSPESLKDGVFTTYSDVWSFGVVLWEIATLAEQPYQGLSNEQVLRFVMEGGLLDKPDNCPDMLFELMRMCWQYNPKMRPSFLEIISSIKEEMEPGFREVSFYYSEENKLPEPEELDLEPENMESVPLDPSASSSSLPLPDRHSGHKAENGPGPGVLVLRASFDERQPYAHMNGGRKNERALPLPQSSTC
Outline: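 Mobility-shift readout of substrate conversion, normalised to positive (no compound) and negative (no kinase) controls, gives % inhibition and IC50 by four-parameter fit. Compounds, 3-fold dilutions over 10 concentrations starting at 3000 nM, preincubated 10 min with kinase before ATP/substrate start; room temperature.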

EGFR WT = EGFR WT (Homo sapiens, UniProt P00533); test: EGFR WT kinase test (mobility variation analysis, Caliper EZ Reader); format: biochemical; conditions: kinase enzymatic activity, Table 1
Chain of EGFR WT (P00533 25-1210): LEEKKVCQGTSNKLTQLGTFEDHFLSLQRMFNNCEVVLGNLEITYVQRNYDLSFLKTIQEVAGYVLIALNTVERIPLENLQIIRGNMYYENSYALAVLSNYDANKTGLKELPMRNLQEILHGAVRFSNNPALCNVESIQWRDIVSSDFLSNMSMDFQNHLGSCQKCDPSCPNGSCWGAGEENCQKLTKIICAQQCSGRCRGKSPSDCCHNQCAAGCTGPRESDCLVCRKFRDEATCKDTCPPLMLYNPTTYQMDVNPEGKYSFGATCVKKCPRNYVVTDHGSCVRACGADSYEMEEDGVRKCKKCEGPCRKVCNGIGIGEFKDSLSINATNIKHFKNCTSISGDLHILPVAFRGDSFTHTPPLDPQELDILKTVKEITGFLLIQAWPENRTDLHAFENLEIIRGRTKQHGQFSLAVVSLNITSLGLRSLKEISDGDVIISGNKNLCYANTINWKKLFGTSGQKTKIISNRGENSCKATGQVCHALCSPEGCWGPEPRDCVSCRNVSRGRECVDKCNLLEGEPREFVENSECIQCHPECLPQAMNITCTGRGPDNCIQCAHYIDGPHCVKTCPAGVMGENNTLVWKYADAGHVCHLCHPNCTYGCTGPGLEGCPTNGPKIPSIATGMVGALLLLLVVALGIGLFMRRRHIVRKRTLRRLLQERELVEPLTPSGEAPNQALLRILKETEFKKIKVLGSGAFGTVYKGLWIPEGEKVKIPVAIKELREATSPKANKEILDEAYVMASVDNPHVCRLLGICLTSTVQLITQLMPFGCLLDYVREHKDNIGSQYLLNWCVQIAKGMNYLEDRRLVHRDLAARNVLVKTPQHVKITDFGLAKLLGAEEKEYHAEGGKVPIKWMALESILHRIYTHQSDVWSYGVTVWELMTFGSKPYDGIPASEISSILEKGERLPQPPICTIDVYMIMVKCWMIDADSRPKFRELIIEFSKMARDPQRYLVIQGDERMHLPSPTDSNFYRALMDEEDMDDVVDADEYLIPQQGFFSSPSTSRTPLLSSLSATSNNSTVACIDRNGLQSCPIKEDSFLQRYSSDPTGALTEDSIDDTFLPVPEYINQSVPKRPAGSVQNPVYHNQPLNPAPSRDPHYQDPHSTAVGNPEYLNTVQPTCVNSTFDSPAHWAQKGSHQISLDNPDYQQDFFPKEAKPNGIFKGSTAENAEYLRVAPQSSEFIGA
Outline: as §1

[2] = biological target: Ba/F3 cells with EGFR Δ19del/T790M/C797S mutation gene stably overexpressed (Homo sapiens, UniProt P00533, T790M/C797S, cells depend on it, form not given); test: Ba/F3-Δ19del/T790M/C797S cell proliferation assay (CellTiter Glo, 72 hours); format: cell-based; conditions: Table 2, read-out: EGFR Δ19del/T790M/C797S IC50
Outline: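 Ba/F3 cells stably overexpressing wild-type EGFR or EGFR Δ19del/T790M/C797S were seeded at 2000 cells/well and incubated 72 h with compound. Viability was read by CellTiter-Glo luminescence, and IC50 came from a four-parameter logistic fit of signal against log concentration.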

| SMILES | IC50 (A431) [µM] | GI50 [1] [µM] | IC50 (EGFRΔ19del/T790M/C797S) [µM] | IC50 (IGF1R) [µM] | IC50 (EGFR WT) [µM] | GI50 [2] [µM] |
| --- | --- | --- | --- | --- | --- | --- |
| COc1cnn(-c2ccc(Nc3nc(Nc4cc(C)c(N5CCN(C6CCCC6)CC5)cc4OC)ncc3Br)c(P(C)(C)=O)c2)c1 [Compound K-089, (2-((5-Bromo-2-((4-(4-cyclopentylpiperazin-1-yl)-2-methoxy-5-methylphenyl)amino)pyrimidin-4-yl)amino)-5-(4-methoxy-1H-pyrazol-1-yl)phenyl)dimethylphosphine oxide] | > 10 | 0.4 | 0.0003 | 0.259 | 0.169 | 0.0095 |
| COc1cnn(-c2ccc(Nc3nc(Nc4cc(OC)c(N5CCC(O)CC5)cc4C)ncc3Br)c(P(C)(C)=O)c2)c1 [Compound K-039, (2-((5-Bromo-2-((4-(4-hydroxypiperidin-1-yl)-5-methoxy-2-methylphenyl)amino)pyrimidin-4-yl)amino)-5-(4-methoxy-1H-pyrazol-1-yl)phenyl)dimethylphosphine oxide] | > 10 | 0.523 | 0.0001 | 0.0456 | 0.0143 | 0.0275 |
| CCc1cc(Nc2ncc(Br)c(Nc3ccc(-c4cc(C)n(C)n4)cc3P(C)(C)=O)n2)c(OC)cc1N1CCC(N2CCN(C)CC2)CC1 [Compound K-066] | 2.3 | 0.105 | 0.0011 | 0.134 | 0.0139 | 0.0106 |
| CCc1cc(Nc2ncc(Br)c(Nc3ccc(-c4ncc(F)cn4)cc3P(C)(C)=O)n2)c(OC)cc1N1CCC(N2CCN(C)CC2)CC1 [Compound 29, (2-((5-Bromo-2-((5-ethyl-2-methoxy-4-(4-(4-methylpiperazin-1-yl)piperidin-1-yl)phenyl)amino)pyrimidin-4-yl)amino)-5-(5-fluoropyrimidin-2-yl)phenyl)dimethylphosphine oxide] | 2.67 | 0.194 | 0.0002 | 0.08 | 0.016 | 0.0134 |
| COc1cc(N2CCOCC2)c(C#N)cc1Nc1ncc(Br)c(Nc2ccc(-c3nccs3)cc2P(C)(C)=O)n1 [Compound K-027, 5-((5-Bromo-4-((2-(dimethylphosphineoxide)-4-(thiazol-2-yl)phenyl)amino)pyrimidin-2-yl)amino)-4-methoxy-2-morpholinobenzonitrile] | 4.05 | 0.453 | 0.0006 | 0.364 | 0.0502 | 0.0129 |
| CCc1cc(Nc2ncc(Br)c(Nc3ccc(-c4ccc(OC)s4)cc3P(C)(C)=O)n2)c(OC)cc1N1CCC(N2CCN(C)CC2)CC1 [Compound K-072, (2-((5-Bromo-2-((5-ethyl-2-methoxy-4-(4-(4-methylpiperazin-1-yl)piperidin-1-yl)phenyl)amino)pyrimidin-4-yl)amino)-5-(5-methoxythiophen-2-yl)phenyl)dimethylphosphine oxide] | 1.93 | 0.446 | 0.00096 | 0.15 | 0.012 | 0.0503 |
| CCc1cc(Nc2ncc(Br)c(Nc3ccc(-n4cc(COC)cn4)cc3P(C)(C)=O)n2)c(OC)cc1N1CCC(N2CCN(C)CC2)CC1 [Compound K-090] | 2.32 | 0.467 | 0.0003 | 0.202 | 0.0282 | 0.0184 |
| CCc1cc(Nc2ncc(Cl)c(Nc3ccc(-c4cnn5c4CCCC5)cc3P(C)(C)=O)n2)c(OC)cc1N1CCC(N2CCN(C)CC2)CC1 [Compound K-104, (2-((5-Chloro-2-((5-ethyl-2-methoxy-4-(4-(4-methylpiperazin-1-yl)piperidin-1-yl)phenyl)amino)pyrimidin-4-yl)amino)-5-(4,5,6,7-tetrahydropyrazolo[1,5-a]pyridin-3-yl)phenyl)dimethylphosphine oxide] | 3.25 | 0.204 | 0.0004 | 0.378 | 0.0231 | 0.0642 |
| CCc1cc(Nc2ncc(Br)c(Nc3ccc(-c4cnn(C)n4)cc3P(C)(C)=O)n2)c(OC)cc1N1CCC(N2CCOCC2)CC1 [Compound K-040, (2-((5-Bromo-2-((5-ethyl-2-methoxy-4-(4-morpholinopiperidin-1-yl)phenyl)amino)pyrimidin-4-yl)amino)-5-(2-methyl-2H-1,2,3-triazol-4-yl)phenyl)dimethylphosphine oxide] | 6.63 | 0.302 | 0.0003 | 0.134 | 0.0245 | 0.0145 |

Molecules with a lower IC50 (A431), results first:

| IC50 (A431) [µM] | GI50 [1] [µM] | IC50 (EGFRΔ19del/T790M/C797S) [µM] | IC50 (IGF1R) [µM] | IC50 (EGFR WT) [µM] | GI50 [2] [µM] | SMILES |
| --- | --- | --- | --- | --- | --- | --- |
| 1.59 | 0.0635 | 0.0003 | 0.121 | 0.0556 | 0.0064 | COc1cc(Nc2ncc(Br)c(Nc3ccc(-c4cnc(C5CC5)cn4)cc3P(C)(C)=O)n2)c(C)cc1N1CCOCC1 [Compound K-033, (2-((5-Bromo-2-((5-methoxy-2-methyl-4-morpholinophenyl)amino)pyrimidin-4-yl)amino)-5-(5-cylopropylpyrazin-2-yl)phenyl)dimethylphosphine oxide] |
| 1.47 | 0.373 | 0.0008 | 0.432 | 0.0317 | 0.0384 | CCc1cc(Nc2ncc(Br)c(Nc3ccc(-c4ccccc4C)cc3P(C)(C)=O)n2)c(OC)cc1N1CCC(N2CCOCC2)CC1 [Compound K-049, (4-((5-Bromo-2-((5-ethyl-2-methoxy-4-(4-morpholinopiperidin-1-yl)phenyl)amino)pyrimidin-4-yl)amino)-2′-methyl-[1,1′-biphenyl]-3-yl)dimethylphosphine oxide] |
| 1.33 | 0.128 | 0.0003 | 0.106 | 0.0552 | 0.0048 | COc1cc(Nc2ncc(Br)c(Nc3ccc(-c4ccc(C)cn4)cc3P(C)(C)=O)n2)c(C)cc1N1CCOCC1 [Compound K-032, (2-((5-Bromo-2-((5-methoxy-2-methyl-4-morpholinophenyl)amino)pyrimidin-4-yl)amino)-5-(5-methylpyridin-2-yl)phenyl)dimethylphosphine oxide] |
| 1.03 | 0.218 | 0.0011 | 0.121 | 0.0123 | 0.0206 | CCc1cc(Nc2ncc(Br)c(Nc3ccc(-c4ccccc4)c(C)c3P(C)(C)=O)n2)c(OC)cc1N1CCC(N2CCN(C)CC2)CC1 [Compound K-050, (4-((5-Bromo-2-((5-ethyl-2-methoxy-4-(4-(4-methylpiperazin-1-yl)piperidin-1-yl)phenyl)amino)pyrimidin-4-yl)amino)-2-methyl-[1,1′-biphenyl]-3-yl)dimethylphosphine oxide] |
| 0.935 | 0.171 | 0.0005 | 0.0915 | 0.0103 | 0.0022 | CCc1cc(Nc2ncc(Br)c(Nc3ccc(-c4ccccc4)cc3P(C)(C)=O)n2)c(OC)cc1N1CCC(N2CCN(C)CC2)CC1 [Compound 1] |
| 0.871 | 0.159 | 0.0003 | 0.072 | 0.0156 | 0.0075 | CCc1cc(Nc2ncc(Br)c(Nc3ccc(-c4ncco4)cc3P(C)(C)=O)n2)c(OC)cc1N1CCC(N2CCN(C)CC2)CC1 [Compound 27] |
| 0.749 | 0.196 | 0.0004 | 0.184 | 0.0193 | 0.0178 | CCc1cc(Nc2ncc(Cl)c(Nc3ccc(-c4cnccn4)cc3P(C)(C)=O)n2)c(OC)cc1N1CCC(N2CCN(C)CC2)CC1 [Compound 32, (2-((5-Chloro-2-((5-ethyl-2-methoxy-4-(4-(4-methylpiperazin-1-yl)piperidin-1-yl)phenyl)amino)pyrimidin-4-yl)amino)-5-(pyrazin-2-yl)phenyl)dimethylphosphine oxide] |
| 0.28 | 0.166 | 0.0003 | 0.0382 | 0.0082 | 0.0038 | CCc1cc(Nc2ncc(Br)c(Nc3ccc(-c4cnn(C)c4)cc3P(C)(C)=O)n2)c(OC)cc1N1CCC(N(C)C)CC1 [Compound K-044, (2-((5-Bromo-2-((4-(4-(dimethylamino)piperidin-1-yl)-5-ethyl-2-methoxyphenyl)amino)pyrimidin-4-yl)amino)-5-(1-methyl-1H-pyrazol-4-yl)phenyl)dimethylphosphine oxide] |
